Results as given in patent publication US20140005230A1 (priority 2011, published 2014).

How the values were obtained:
[1] = LogP by HPLC on reversed phase columns (EEC directive 79/831 Annex V.A8); format: physicochemical; details: pH 2.7, 0.1% formic acid in water / acetonitrile gradient
Method: Measurement of Iog P values was performed according EEC directive 79/831 Annex V.A8 by HPLC (High Performance Liquid Chromatography) on reversed phase columns with the following method:
Measurement of LC-MS was done at pH 2.7 with 0.1% formic acid in water and with acetonitrile (contains 0.1% formic acid) as eluent with a linear gradient from 10% acetonitrle to 95% acetonitrile.
Calibration was done with not branched alkan2-ones (with 3 to 16 carbon atoms) with known log P-values (measurement of log P values using retention times with linear interpolation between successive alkanones). lambda-maX-values were determined using UV-spectra from 200 nm to 400 nm and the peak values of the chromatographic signals.

Phytophthora infestans = format: in vivo; details: tomatoes, preventive spray, 10 ppm of active ingredient, evaluated 3 days after inoculation
Plasmopara viticola = test: Plasmopara test (grapevines) / preventive; format: in vivo; details: preventive spray, 100 ppm of active ingredient, evaluated 6 days after inoculation
Method: Plasmopara Test (Grapevines)/Preventive
To produce a suitable preparation of active compound, 1 part by weight of active compound is mixed with the stated amounts of solvent and emulsifier, and the concentrate is diluted with water to the desired concentration.
To test for preventive activity, young plants are sprayed with the preparation of active compound at the stated rate of application. After the spray coating has dried on, the plants are inoculated with an aqueous spore suspension of Plasmopara viticola and then remain for 1 day in an incubation cabinet at approximately 20° C. and a relative atmospheric humidity of 100%. The plant is subsequently placed for 4 days in a greenhouse at approximately 21° C. and a relative atmospheric humidity of approximately 90%. The plants are then misted and placed for 1 day in an incubation cabinet.
The test is evaluated 6 days after the inoculation. 0% means an efficacy which corresponds to that of the untreated control, while an efficacy of 100% means that no disease is observed.

Pythium ultimum = test: Pythium test (cotton) / seed treatment; format: in vivo; details: 50 g/dt seed of active ingredient, greenhouse 7 days, emerged seedlings
Method: Pythium Test (cotton)/Seed Treatment
The test is performed under greenhouse conditions.
Cotton seeds, treated with the active compound or compound combinations, solved in N-methyl-2-pyrrolidon and diluted with water to the desired dosages, were sown in 6*6 cm pots containing 4 cm of a 1:1 mix of steamed field soil and sand.
Perlite was incubated with mycelium fragments of Pythium ultimum. 1 ml of infected perlite was scattered between the treated cotton seeds. Seeds were then covered by light expanded clay aggregate. Pots were incubated in the greenhouse 7 days at 20° C. and 80% relative humidity.
Assessment consisted of counting of emerged seedlings. 0% means an efficacy which corresponds to that of the control, while an efficacy of 100% means that all seedlings have emerged.

Compound | LogP [1] | Eff. % (Phytophthora infestans) [%] | Eff. % (Plasmopara viticola) [%] | chromatographic logP ([1]; reversed phase HPLC column) | Eff. % (Pythium ultimum) [%]
CC(=CC1CC1)C(=O)Nc1nc(CON=C(c2ccccc2)c2nnnn2C)cs1 [Example 27] | 3.44 | 95 | – | – | –
Cc1nnnn1C(=NOCc1csc(NC(=O)C=C(c2ccccc2)C2CC2)n1)c1ccccc1 [Example 17] | 2.38 | – | – | – | –
Cn1nnnc1C(=NOCc1csc(NC(=O)C=C(c2ccccc2)C2CC2)n1)c1ccccc1 [Example 22] | 4.21 | 80 | – | – | –
Cc1nnnn1C(=NOCc1csc(NC(=O)C=C(c2ccccc2)C2CC2)n1)c1ccccc1 [Example 9] | 4.26 | 85 | – | – | –
CC(=CC1CCCC1)C(=O)Nc1nc(CON=C(c2ccccc2)n2nnnc2C)cs1 [Example 10] | 4.16 | 80 | – | – | –
CC(C)=CC(=O)Nc1nc(CON=C(c2ccccc2)c2nnnn2C)cs1 [Example 28] | 3.08 | 90 | – | – | –
CC(C)=CC(=O)Nc1nc(CON=C(c2ccccc2)n2nnnc2C)cs1 [Example 12] | 3.15 | 80 | – | – | –
Cc1nnnn1C(=NOCc1cccc(NC(=O)C=C(c2ccccc2)C2CC2)n1)c1ccccc1 [Example 33] | 4.41 | 95 | – | – | –
Cc1nnnn1C(=NOCc1csc(NC(=O)C=C(C2CC2)C2CC2)n1)c1ccccc1 [Example 15] | 3.83 | – | – | – | –
Cn1nnnc1C(=NOCc1csc(NC(=O)C=CC2CCCCC2)n1)c1ccccc1 [Example 29] | 2.5 | 95 | – | – | –
Cn1nnnc1C(=NOCc1csc(NC(=O)C=C(C2CC2)C2CC2)n1)c1ccccc1 [Example 23] | 3.76 | 85 | – | – | –
CC(=CC(=O)Nc1cccc(CON=C(c2ccccc2)n2nnnc2C)n1)C1CC1 (mixture of isomers) [Example 31] | 3.59 | 93 | – | – | –
CC(=CC(=O)Nc1nc(CON=C(c2ccccc2)n2nnnc2C)cs1)C1CC1 [Example 7] | 3.46 | – | – | – | –
CC(=CC1CC1)C(=O)Nc1nc(CON=C(c2ccccc2)n2nnnc2C)cs1 [Example 11] | 3.52 | 95 | – | – | –
Cn1nnnc1C(=NOCc1cccc(NC(=O)C=CC2CCCCC2)n1)c1ccccc1 [Example 6] | 4.36 | 95 | 93 | – | –
CC(=CC(=O)Nc1nc(CON=C(c2ccccc2)c2nnnn2C)cs1)C1CCCCC1 [Example 21] | 4.44 | – | – | – | –
CC(=CC(=O)Nc1nc(CON=C(c2ccccc2)c2nnnn2C)cs1)C1CC1 [Example 18] | 3.41 | – | – | – | –
CC(=CC(=O)Nc1cccc(CON=C(c2ccccc2)c2nnnn2C)n1)C1CC1 [Example 3] | 3.46 | 95 | – | – | –
CC(=CC(=O)Nc1cccc(CON=C(c2ccccc2)c2nnnn2C)n1)C1CCCCC1 [Example 5] | 4.82 | 90 | 91 | – | –
Cc1nnnn1C(=NOCc1csc(NC(=O)C=CC2CC2)n1)c1ccccc1 [Example 13] | 3.09 | – | – | – | –
CC(=CC(=O)Nc1cccc(CON=C(c2ccccc2)c2nnnn2C)n1)C1CC1 [Example 2] | 3.29 | 100 | 84 | – | –
Cn1nnnc1C(=NOCc1csc(NC(=O)C=CC2CC2)n1)c1ccccc1 [Example 24] | 3.04 | 95 | 90 | – | –
CC(=CC1CCCC1)C(=O)Nc1nc(CON=C(c2ccccc2)c2nnnn2C)cs1 [Example 26] | 4.09 | 95 | 90 | – | –
Cc1nnnn1C(=NOCc1cccc(NC(=O)C=CC2CCCCC2)n1)c1ccccc1 (mixture of isomers) [Example 32] | 4.46 | 95 | – | – | –
CC(=CC(=O)Nc1cccc(CON=C(c2ccccc2)c2nnnn2C)n1)C1CC1 [Example 1, 3-cyclopropyl-N-{6-[({[(1-methyl-1H-tetrazol-5-yl)(phenyl)methylene]amino}oxy)methyl]pyridin-2-yl}but-2-enamide] | – | 95 | 97 | 3.48 | 100
Cc1nnnn1C(=NOCc1csc(NC(=O)C=CC2CCCCC2)n1)c1ccccc1 [Example 16] | 2.53 | 90 | – | – | –
CC(=CC(=O)Nc1nc(CON=C(c2ccccc2)c2nnnn2C)cs1)C1CCCCC1 [Example 20] | 4.66 | 80 | – | – | –
Cn1nnnc1C(=NOCc1csc(NC(=O)C=C(c2ccccc2)C2CC2)n1)c1ccccc1 [Example 30] | 2.36 | 85 | – | – | –
